Experiments:
Histone deacetylase 1 = Histone deacetylase 1 (Homo sapiens, UniProt Q13547); test: Inhibition of human recombinant HDAC1 using ArgHisLysLys(Ac) as substrate by fluorescence based analysis
Histone deacetylase 9 = Histone deacetylase 9 (Homo sapiens, UniProt Q9UKV0); test: Inhibition of human recombinant HDAC9 using ArgHisLysLys(Ac) as substrate by fluorescence based analysis
Histone deacetylase 11 = target: T1, Histone deacetylase 11 (Homo sapiens, UniProt Q96DB2); test: Inhibition of human recombinant HDAC11 using ArgHisLysLys(Ac) as substrate by fluorescence based analysis
T1 sequence (Q96DB2 whole entry): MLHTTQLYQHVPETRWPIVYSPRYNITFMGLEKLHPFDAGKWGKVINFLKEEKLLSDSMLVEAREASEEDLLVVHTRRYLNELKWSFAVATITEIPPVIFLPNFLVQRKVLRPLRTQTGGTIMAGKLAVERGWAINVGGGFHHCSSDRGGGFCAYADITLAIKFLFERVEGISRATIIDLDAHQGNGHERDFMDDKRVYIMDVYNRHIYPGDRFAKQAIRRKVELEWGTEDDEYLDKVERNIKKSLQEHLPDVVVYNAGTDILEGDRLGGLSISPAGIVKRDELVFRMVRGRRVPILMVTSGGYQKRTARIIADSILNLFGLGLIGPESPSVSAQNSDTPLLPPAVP

Histone deacetylase 5 = Histone deacetylase 5 (Homo sapiens, UniProt Q9UQL6); test: Inhibition of human recombinant HDAC5 using ArgHisLysLys(Ac) as substrate by fluorescence based analysis
Histone deacetylase 2 = Histone deacetylase 2 (Homo sapiens, UniProt Q92769); test: Inhibition of human recombinant HDAC2 using ArgHisLysLys(Ac) as substrate by fluorescence based analysis
[1] = target: T2, Protein deacetylase HDAC6 (Homo sapiens, UniProt Q9UBN7); test: Inhibition of human recombinant HDAC6 using ArgHisLysLys(Ac) as substrate by fluorescence based analysis
T2 sequence (Q9UBN7 whole entry): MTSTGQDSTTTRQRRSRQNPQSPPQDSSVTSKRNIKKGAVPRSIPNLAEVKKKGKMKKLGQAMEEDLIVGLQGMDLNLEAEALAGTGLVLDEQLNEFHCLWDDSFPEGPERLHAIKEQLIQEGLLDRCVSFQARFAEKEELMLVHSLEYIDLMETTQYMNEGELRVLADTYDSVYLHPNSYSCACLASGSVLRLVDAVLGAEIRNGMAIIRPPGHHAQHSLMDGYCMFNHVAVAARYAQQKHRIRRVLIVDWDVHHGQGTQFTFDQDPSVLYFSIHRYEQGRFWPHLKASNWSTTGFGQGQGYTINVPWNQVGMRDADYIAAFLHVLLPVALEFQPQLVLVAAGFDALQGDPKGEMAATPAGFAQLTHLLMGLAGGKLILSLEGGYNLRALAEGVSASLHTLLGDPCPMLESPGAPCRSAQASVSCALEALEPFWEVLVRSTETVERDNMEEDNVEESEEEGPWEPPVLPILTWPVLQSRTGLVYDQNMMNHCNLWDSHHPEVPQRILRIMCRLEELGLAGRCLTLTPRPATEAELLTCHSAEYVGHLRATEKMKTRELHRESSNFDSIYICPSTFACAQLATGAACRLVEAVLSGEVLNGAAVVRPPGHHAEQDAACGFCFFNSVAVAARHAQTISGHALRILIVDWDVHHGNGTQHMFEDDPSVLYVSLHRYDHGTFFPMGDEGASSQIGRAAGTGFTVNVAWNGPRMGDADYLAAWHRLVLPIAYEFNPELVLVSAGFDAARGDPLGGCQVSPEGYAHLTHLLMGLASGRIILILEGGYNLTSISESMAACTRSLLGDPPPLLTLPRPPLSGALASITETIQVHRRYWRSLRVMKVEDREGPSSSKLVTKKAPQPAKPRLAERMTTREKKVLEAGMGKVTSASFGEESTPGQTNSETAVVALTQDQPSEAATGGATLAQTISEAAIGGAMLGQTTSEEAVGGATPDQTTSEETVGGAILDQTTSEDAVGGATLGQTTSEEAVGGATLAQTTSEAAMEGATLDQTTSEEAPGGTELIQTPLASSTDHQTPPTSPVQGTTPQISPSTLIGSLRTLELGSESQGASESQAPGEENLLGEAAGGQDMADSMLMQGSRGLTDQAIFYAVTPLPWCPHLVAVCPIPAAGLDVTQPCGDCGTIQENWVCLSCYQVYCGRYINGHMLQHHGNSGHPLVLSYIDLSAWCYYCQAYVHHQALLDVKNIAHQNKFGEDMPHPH

Histone deacetylase 7 = target: T3, Histone deacetylase 7 (Homo sapiens, UniProt Q8WUI4); test: Inhibition of human recombinant HDAC7 using ArgHisLysLys(Ac) as substrate by fluorescence based analysis
T3 sequence (Q8WUI4 whole entry): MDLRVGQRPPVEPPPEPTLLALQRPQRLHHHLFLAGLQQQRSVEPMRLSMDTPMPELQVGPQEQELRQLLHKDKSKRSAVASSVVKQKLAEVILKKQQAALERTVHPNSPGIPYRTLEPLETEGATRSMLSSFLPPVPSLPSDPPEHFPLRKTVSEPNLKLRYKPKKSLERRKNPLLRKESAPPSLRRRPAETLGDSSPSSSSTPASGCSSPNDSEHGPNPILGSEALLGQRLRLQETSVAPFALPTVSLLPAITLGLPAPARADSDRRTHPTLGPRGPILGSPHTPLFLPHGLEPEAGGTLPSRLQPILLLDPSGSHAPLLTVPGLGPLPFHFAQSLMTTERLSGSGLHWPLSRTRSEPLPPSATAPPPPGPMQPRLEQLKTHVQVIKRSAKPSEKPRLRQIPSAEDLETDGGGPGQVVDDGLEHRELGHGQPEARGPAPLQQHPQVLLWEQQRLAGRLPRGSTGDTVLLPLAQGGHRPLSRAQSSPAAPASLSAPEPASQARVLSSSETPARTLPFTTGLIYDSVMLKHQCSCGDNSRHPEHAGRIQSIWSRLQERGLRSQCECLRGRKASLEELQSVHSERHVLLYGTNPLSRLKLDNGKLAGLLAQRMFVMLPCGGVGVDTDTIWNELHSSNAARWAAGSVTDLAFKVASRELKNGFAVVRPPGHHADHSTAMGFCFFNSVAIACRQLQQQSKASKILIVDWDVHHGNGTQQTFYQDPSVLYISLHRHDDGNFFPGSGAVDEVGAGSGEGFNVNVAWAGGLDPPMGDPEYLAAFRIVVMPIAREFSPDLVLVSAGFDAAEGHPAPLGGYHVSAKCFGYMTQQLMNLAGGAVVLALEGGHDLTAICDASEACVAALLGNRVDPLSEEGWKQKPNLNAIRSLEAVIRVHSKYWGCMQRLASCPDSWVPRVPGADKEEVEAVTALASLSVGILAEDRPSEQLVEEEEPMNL

Sequence of Histone deacetylase 5 (Q9UQL6 whole entry): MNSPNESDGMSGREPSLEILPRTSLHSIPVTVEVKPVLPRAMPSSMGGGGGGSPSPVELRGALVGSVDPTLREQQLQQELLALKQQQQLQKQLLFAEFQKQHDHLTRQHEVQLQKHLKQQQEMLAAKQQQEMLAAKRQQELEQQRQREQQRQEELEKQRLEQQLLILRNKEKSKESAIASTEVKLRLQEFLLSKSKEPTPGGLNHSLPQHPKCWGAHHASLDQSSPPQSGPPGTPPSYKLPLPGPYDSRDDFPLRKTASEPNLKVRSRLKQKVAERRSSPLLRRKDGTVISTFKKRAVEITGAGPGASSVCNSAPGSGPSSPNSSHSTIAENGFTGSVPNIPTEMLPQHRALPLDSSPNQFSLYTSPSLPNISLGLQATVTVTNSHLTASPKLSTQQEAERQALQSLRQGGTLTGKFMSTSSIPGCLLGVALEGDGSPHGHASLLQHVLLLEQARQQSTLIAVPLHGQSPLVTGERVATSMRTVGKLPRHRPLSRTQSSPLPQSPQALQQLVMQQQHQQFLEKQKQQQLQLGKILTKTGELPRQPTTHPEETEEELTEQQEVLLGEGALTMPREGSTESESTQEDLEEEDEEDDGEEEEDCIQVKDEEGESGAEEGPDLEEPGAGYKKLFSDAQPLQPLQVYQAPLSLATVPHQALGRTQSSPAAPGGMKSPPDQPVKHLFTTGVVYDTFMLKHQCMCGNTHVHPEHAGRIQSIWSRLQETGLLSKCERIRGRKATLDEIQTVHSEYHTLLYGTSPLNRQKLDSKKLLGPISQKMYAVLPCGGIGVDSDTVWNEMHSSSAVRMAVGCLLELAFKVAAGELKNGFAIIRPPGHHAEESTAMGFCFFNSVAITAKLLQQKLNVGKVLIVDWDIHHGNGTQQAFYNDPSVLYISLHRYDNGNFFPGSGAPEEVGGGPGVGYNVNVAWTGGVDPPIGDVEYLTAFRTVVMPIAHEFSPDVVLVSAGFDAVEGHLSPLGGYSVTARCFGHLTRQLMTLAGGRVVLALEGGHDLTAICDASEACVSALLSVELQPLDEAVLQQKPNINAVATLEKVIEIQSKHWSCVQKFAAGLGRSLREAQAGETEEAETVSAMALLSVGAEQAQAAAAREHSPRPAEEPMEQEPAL
Sequence of Histone deacetylase 2 (Q92769 whole entry): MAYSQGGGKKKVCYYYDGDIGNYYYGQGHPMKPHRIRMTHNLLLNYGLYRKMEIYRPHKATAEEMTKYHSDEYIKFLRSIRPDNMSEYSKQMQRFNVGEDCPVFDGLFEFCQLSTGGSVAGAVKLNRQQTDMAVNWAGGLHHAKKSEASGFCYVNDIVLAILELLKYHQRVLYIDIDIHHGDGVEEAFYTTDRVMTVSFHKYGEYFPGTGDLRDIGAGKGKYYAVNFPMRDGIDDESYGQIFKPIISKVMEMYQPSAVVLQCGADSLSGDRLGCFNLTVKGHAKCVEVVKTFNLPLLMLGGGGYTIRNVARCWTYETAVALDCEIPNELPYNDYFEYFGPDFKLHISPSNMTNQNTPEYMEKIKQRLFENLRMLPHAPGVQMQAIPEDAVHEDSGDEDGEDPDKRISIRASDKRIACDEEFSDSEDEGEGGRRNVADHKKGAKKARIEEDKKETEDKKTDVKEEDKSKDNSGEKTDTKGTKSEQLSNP
Sequence of Histone deacetylase 1 (Q13547 whole entry): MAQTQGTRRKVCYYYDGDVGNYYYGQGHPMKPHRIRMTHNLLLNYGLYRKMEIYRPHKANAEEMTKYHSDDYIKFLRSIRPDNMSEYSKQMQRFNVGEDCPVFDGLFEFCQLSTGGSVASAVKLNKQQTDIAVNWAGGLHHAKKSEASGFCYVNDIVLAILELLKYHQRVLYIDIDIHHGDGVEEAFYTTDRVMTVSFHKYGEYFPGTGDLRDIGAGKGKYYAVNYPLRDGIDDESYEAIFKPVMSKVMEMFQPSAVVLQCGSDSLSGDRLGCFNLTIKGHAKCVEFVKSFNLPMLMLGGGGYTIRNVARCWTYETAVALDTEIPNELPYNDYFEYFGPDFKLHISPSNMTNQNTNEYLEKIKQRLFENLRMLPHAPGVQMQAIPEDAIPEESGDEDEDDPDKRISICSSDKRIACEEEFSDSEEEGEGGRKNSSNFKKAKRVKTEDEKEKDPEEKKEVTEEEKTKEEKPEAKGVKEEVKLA
Sequence of Histone deacetylase 9 (Q9UKV0 whole entry): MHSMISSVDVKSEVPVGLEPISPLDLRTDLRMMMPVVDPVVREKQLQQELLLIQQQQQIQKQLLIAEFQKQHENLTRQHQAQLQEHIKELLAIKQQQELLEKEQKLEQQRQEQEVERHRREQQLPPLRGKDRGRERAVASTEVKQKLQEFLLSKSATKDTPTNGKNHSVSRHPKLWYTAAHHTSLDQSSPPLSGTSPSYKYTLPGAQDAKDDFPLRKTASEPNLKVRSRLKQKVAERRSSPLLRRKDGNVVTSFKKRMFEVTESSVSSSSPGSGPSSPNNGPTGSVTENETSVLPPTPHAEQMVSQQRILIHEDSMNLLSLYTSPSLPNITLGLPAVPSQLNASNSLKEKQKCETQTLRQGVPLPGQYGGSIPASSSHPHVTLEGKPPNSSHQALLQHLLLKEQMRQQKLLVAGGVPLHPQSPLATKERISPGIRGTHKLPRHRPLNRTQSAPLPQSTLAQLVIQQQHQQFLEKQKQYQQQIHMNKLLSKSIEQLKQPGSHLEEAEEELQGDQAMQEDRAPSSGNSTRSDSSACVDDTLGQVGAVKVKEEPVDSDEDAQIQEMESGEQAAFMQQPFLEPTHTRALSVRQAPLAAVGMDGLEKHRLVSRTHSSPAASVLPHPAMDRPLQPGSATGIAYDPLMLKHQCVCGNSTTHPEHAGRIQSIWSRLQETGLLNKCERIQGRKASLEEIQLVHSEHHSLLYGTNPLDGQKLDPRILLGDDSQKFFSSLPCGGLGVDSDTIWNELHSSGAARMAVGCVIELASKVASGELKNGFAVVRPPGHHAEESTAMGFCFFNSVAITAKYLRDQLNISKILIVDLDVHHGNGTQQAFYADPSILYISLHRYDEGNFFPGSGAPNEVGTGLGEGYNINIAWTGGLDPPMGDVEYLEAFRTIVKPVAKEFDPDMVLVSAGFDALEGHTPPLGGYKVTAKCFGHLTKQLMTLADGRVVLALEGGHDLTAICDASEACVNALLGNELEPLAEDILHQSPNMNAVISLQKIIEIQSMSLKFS

Structure (SMILES)	IC50 (Histone deacetylase 1)	IC50 (Histone deacetylase 9)	IC50 (Histone deacetylase 11)	IC50 (Histone deacetylase 5)	IC50 (Histone deacetylase 2)	IC50 [1]	IC50 (Histone deacetylase 7)
Nc1ccccc1N1CC(CCCCCC(=O)Nc2ccccc2)C1=O (stereo not drawn)	> 1 mM	> 1 mM	> 1 mM	> 1 mM	> 1 mM	> 1 mM	> 1 mM
O=C(CCCCCC1CNC1=O)Nc1ccccc1 (stereo not drawn)	> 1 mM	> 1 mM	> 1 mM	> 1 mM	> 1 mM	0.0745 mM	> 1 mM
O=C(CCCCC[C@H]1CN(O)C1=O)Nc1ccccc1	> 1 mM	> 1 mM	> 1 mM	> 1 mM	> 1 mM	0.174 mM	> 1 mM
O=C(CCCCC[C@@H]1CN(O)C1=O)Nc1ccccc1	> 1 mM	> 1 mM	> 1 mM	> 1 mM	> 1 mM	0.132 mM	> 1 mM

From ChEMBL document CHEMBL5352506, “The Zinc-Binding Group Effect: Lessons from Non-Hydroxamic Acid Vorinostat Analogs” (J Med Chem, 2023)
